Data from US20250332143A1, “COMPOSITION COMPRISING ALOX5 INHIBITOR FOR PREVENTING OR TREATING SARCOPENIA” (PLUTO Inc., priority 2022, published 2025).
Entries after “also recorded” stand apart in the source; their conditions may differ.

Assays:
Atrogin-1 and MuRF-1 = assay: qPCR of muscle atrophy regulators in Dex-treated C2C12 myotubes; type: cell-based, mouse
Method: C2C12 murine skeletal muscle myoblasts were obtained from Koram Biotech (Republic of Korea). The cells were maintained in DMEM growth medium supplemented with 10% FBS, 1% penicillin, and streptomycin. When myoblasts proliferated to approximately 90%, they were differentiated into muscle fibers by treating them with DMEM differentiation medium supplemented with 2% HS, 1% penicillin, and streptomycin for 96 hours. Differentiated muscle fibers were treated with 10 μM Dex for 24 hours to induce sarcopenia. To evaluate the degree of differentiation of muscle cells, differentiating myoblasts were treated with the corresponding compound in differentiation medium for 24 or 48 hours.
(§1) For quantitative real-time PCR, transcript levels of genes of interest were analyzed using the StepOnePlus real-time PCR system (Applied Biosystems, UK). Total RNA was reverse transcribed to prepare cDNA using AccuPower® RT PreMix (Bioneer Corporation). The obtained cDNA was subjected to real-time PCR according to the manufacturer's instructions with the following changes. PCR was performed in triplicate in a total volume of 20 μL 2× Power SYBR Green PCR Master Mix (Enzynomics, Republic of Korea) containing 200 nM (final concentration) of each specific primer and 1 μL of cDNA synthesized from 1 μg of total RNA. PCR amplification consisted of incubating the mixture at 95° C. for 10 minutes, followed by 40 cycles of denaturation, annealing, and extension. Denaturation was performed at 95° C. for 15 s, annealing was performed at 60° C. for 1 min, and extension was performed at 72° C. for 20 s with fluorescence detection at 72° C. after each cycle. After the final cycle, melting point analysis of all samples was performed within the range of 60 to 95° C. using continuous fluorescence detection. Specific cDNA samples were included in each run and used as reference material for comparison between runs. The expression level of GAPDH was used to calculate and normalize the expression levels of all other genes. Results were expressed as relative expression levels for each gene. The synthesized cDNA was amplified by quantitative real-time PCR (qRT-PCR) or standard PCR.

Alox5 = target: T1, Alox5 (Homo sapiens, UniProt P09917); conditions: cited from earlier work
T1 sequence (P09917 1-674): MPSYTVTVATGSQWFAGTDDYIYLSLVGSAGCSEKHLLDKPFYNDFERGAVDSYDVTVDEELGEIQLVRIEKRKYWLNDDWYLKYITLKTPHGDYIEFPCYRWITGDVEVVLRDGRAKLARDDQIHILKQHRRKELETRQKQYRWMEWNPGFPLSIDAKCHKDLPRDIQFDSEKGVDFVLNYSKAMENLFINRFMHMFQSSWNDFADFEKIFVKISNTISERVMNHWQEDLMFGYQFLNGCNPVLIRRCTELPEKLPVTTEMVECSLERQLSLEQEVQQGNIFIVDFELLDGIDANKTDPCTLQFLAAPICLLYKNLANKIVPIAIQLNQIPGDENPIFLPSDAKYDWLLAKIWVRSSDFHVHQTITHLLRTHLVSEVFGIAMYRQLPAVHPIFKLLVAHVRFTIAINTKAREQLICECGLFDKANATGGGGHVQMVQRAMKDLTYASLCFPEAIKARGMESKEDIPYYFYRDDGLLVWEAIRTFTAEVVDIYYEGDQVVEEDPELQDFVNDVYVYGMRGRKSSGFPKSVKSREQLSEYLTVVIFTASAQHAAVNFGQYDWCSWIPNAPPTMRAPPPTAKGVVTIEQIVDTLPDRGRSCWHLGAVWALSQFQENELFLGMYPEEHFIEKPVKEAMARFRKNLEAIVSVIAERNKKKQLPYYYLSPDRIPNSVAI

[1] = test system: Dex-treated C57BL/6J mice; assay: Dexamethasone-induced sarcopenia mouse model; type: in vivo
Method: as §1
An LTB4 ELISA kit was purchased from MyBioSource (CA, USA). The concentrations of LTB4 in skeletal muscles and cell lysates were measured by the enzyme-linked […] method according to the manufacturer's instructions. Samples (100 μL) were maintained at room temperature (RT) for 1 hour in 96 wells with polyclonal LTB4 antibody. Afterwards, an enzymatic reaction was performed to stop the process, and the absorbance was measured at 405 nm.
8. Dexamethasone-Induced Sarcopenia Mouse Model 12-week-old male C57BL/6J mice were divided into 3 groups of 5 each and treated with drugs as follows: 1) PBS with 5% DMSO and 5% Tween 80 (Vehicle group); 2) 15 mg/kg of Dexamethasone (at a concentration of 15 mg/kg, in PBS containing 5% DMSO and 5% Tween 80) (Dexamethasone group); and 3) 10 mg/kg of malotilate (at a concentration of 10 mg/kg, in PBS containing 15 mg/kg Dexamethasone, 5% DMSO, and 5% Tween 80) (Malotilate group). Those were injected intraperitoneally (solution volume=200 μL) for 2 weeks. Afterwards, the muscle function and conditions of the mice were analyzed.
Grip strength was measured with the BIO-GS3 grip strength test meter (Bioseb, FL, USA). Grip strength was measured by placing the mouse on a grid and gently pulling it back with all four paws until the mouse fell off the grid. The trials were conducted with a time interval of 30 seconds, and the largest value among the three trials was selected as the representative muscle strength.
Muscle fatigue was measured from two different models using Rotarod (Ugo Basile, Italy). One is a constant speed model that measures how long movement can be continued on a cylinder rotating at a constant speed, and the other model is an acceleration model that measures how fast the mouse can continue movement when the speed of the cylinder increases at regular intervals. Mice were trained to adapt from 5 rpm to 15 rpm one day before measurement in the above two models.
Before sacrifice, mice were anesthetized by intraperitoneally administering 22 mg/kg Ketamine (Yuhan, Republic of Korea) and 10 mg/kg xylazine (Bayer, Republic of Korea) by IP injection, and then samples were collected. Quadriceps, gastrocnemius, tibialis anterior and soleus muscles were sampled and their weights were measured. The muscles sampled for immunohistostaining were cultured overnight at 4° C. with 4% paraformaldehyde, fixed, embedded in paraffin solution, and stored at −80° C. […]

human myotubes = assay: Dexamethasone-induced atrophy of human skeletal myotubes, H&E, diameter; type: cell-based; conditions: dexamethasone co-treatment
Method: Human-derived myoblasts were purchased from Thermo-Fisher Scientific (USA). Myoblasts were thawed using a water bath, centrifuged at 180 g for 5 min at room temperature, and washed with 20 mL DM. Myoblasts were then resuspended in DM and seeded in a 12-well plate at a density of 4.8×10^4 cells/well. After 48 hours, myoblasts were treated with compounds of interest for 24 hours. Myotubes were stained with H&E. After light microscopy analysis of DIC captured images (Olympus CKX41), myotubes were measured using ImageJ 1.48 software (National Institutes of Health, USA).

[2] = Dex-treated mice, 10 mg/kg intraperitoneally, 2 weeks
[3] = Dex-treated mice, quadriceps, mRNA

CC(C)OC(=O)C(C(=O)OC(C)C)=C1SC=CS1 [malotilate, Malotilate]
Atrogin-1 expression (mRNA, qPCR) (Atrogin-1 and MuRF-1): inhibited the upregulation; also recorded: decreased | MuRF-1 expression (mRNA, qPCR) (Atrogin-1 and MuRF-1): inhibited the upregulation; also recorded: decreased | Alox5 inhibition selectivity (Alox5): selective inhibitor of Alox5 | grip strength [1, 2]: significantly increased | latency to fall, rotarod [1, 2]: significantly increased | maximum velocity, rotarod [1, 2]: significantly increased | quadriceps muscle mass [1, 2]: increased | soleus muscle mass [1, 2]: increased | LTB4 level in muscle (ELISA) ([1]; Dex-treated mice, quadriceps): lowered | average muscle fiber cross sectional area (CSA) ([1]; Dex-treated mice, quadriceps): increased | proportion of fibers with larger CSA ([1]; Dex-treated mice, quadriceps): increased | MuRF-1 expression in muscle [1, 3]: reduced | atrogin-1 expression in muscle [1, 3]: reduced | skeletal muscle atrophy ([1]; animal model of sarcopenia due to Dex treatment): inhibited | atrophy of human myotubes (human myotubes; 24 hours): can prevent atrophy | mean myotube diameter (human myotubes; human myotubes): increased | proportion of myotubes of larger size (human myotubes; human myotubes): greater proportion
